pIC50: −log10 of the molar value. Where two headings read alike, the source gives them in different places.
Tests used:
OR2/OR7 = target: T1, OR2/OR7 (Anopheles gambiae, UniProt Q7QCC7+Q8WTE6); test: Ca2+-imaging of stable HEK293T cell line OR2/OR7; assay type: cell-based
T1 construct: Full-length cDNAs for mosquito (Anopheles gambiae) odorant receptor (OR1, OR2, OR7, OR8, OR28); expressed in transfected cells
T1 sequence (Q8WTE6 1-378): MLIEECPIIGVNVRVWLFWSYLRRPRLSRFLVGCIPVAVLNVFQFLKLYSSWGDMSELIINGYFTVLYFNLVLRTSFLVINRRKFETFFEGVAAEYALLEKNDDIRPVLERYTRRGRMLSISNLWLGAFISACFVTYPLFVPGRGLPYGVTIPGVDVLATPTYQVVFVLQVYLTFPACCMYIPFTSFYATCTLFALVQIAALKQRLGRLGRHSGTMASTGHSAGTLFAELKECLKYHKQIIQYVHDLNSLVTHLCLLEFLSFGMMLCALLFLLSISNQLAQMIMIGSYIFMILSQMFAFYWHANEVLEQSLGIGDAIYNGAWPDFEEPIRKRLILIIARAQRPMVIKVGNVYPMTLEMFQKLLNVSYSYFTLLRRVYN
T1 sequence (Q7QCC7 1-478): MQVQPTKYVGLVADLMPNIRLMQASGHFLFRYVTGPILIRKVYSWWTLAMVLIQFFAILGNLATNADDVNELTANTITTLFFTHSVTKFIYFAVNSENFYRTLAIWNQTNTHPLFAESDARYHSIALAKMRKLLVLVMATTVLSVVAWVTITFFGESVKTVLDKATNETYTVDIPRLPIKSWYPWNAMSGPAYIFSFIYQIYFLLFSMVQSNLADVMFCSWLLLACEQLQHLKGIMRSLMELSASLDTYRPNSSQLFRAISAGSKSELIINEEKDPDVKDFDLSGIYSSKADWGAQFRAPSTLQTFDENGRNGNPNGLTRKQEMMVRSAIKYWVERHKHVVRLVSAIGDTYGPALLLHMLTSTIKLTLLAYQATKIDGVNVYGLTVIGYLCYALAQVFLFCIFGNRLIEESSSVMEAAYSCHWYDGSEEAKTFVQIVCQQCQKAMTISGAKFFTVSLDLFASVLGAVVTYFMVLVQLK
Protocol: (§1) Full-length cDNAs for mosquito (Anopheles gambiae) odorant receptor (OR1, OR2, OR7, OR8, OR28), and fly (Drosophila melanogaster) odorant receptor (Or47a, Or83b), mouse TRP channel (TRPM8), and mouse serotonin receptor (5HT3) were obtained and subcloned into mammalian expression vectors. The following mammalian expression vectors were used:
(§2) Stable cell lines OR1/OR7, OR2/OR7, OR8/OR7, OR10/OR7, OR28/OR7 and TRPM8 were generated from HEK293T cells. HEK293T-based cell lines were cultured in DMEM supplemented with these additional antibiotics: 6 μg/mL blasticidin and 1 μg/mL puromycin, with the exception of the TRPM8 cell lines, which was cultured in DMEM supplemented with 1 μg/mL puromycin.
(§3) Cells were trypsinized and split into 35 mm dishes one day before transfection. Confluent cells (60-70%) in 35 mm dishes were transfected with 1 μg of insect OR(X) plasmids in pME18s-bla and 1 μg of OR7-pME18s-puro using lipofectamine 2000. For Anopheles odorant receptors, two plasmids were co-transfected into HEK cells: the ligand-specific receptor (OR1, OR2, OR8, OR28) and the corresponding olfactory co-receptor: OR7. Cell lines containing TRPM8 were transfected with single plasmid.
(§4) Stable cell lines were cultured in 10 cm dishes, and confluent cells (70-80%) were trypsinized. 10,000 cells/20 μL were transferred into each well of 384-well plates coated with poly-D-lysine, and cultured for 2 days. For Flip-In T-Rex cells (cell lines expressing Or47a/Or83b and 5HT3), 5 μL of tetracycline (5 μg/mL) were added 1 day before the assay. 20 μL of Ca-4 dye was loaded into each well for 1.5 hr at room temperature in the dark, and the dye-loaded plates were subjected to Ca^2+-imaging using a Hamamatsu FDSS6000 real time fluorescence plate reader. Odorant solutions (9× final concentration) were prepared by dissolving 1M stock solutions into Hank's Buffered Salt Solution (HBSS), and 30 μL of odor solution was transferred to each well in 384-well plates.
(§5) Compounds ([…] in DMSO) were stored in 384-well plates, and last two columns (32 wells total) contained only DMSO. 200 nL of small compounds were transferred into the odorant plates before the assay using the Perkin-Elmer Janus workstation. The odorant plates were spun down to remove air bubbles, and placed on the FDSS6000 plate loader, and 5 μL of odorant solution was applied to the cell plate on the FDSS6000. Ca^2+ increase was monitored with fluorescence at 525 nm by excitation at 485 nm.

OR1/OR7 = target: T2, OR1/OR7 (Anopheles gambiae, UniProt Q7QCC7+Q8WTE7); test: Ca2+-imaging of stable HEK293T cell line OR1/OR7; assay type: cell-based
T2 construct: Full-length cDNAs for mosquito (Anopheles gambiae) odorant receptor (OR1, OR2, OR7, OR8, OR28); expressed in transfected cells
T2 sequence (Q8WTE7 1-417): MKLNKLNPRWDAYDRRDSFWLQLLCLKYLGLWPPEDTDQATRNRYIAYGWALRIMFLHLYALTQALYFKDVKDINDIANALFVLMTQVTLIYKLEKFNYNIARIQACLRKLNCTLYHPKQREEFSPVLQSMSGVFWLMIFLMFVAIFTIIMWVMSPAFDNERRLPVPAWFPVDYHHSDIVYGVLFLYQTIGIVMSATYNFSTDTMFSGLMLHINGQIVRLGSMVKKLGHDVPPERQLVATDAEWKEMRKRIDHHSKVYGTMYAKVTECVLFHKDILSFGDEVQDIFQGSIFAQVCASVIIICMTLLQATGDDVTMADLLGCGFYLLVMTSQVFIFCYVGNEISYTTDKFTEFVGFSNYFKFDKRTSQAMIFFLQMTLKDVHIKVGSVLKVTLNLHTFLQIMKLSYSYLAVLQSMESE
T2 sequence (Q7QCC7 1-478): T1 sequence (Q7QCC7 1-478)
Protocol: as §1, §2, §3, §4, §5

[1] = tested on: ab5 neuron that expresses the Or47a/Or83b receptor; test: Single sensillum recordings of fly olfactory neurons; assay type: in vivo, Drosophila melanogaster
Protocol: Female flies (Drosophila melanogaster) of the w^1118 genotype were immobilized by inserting single adult flies into the wide end of a 200 μL pipette tip, and mounting this on a microscope cover glass with a piece of wax. Antennal olfactory neurons of immobilized flies were subjected to extracellular recording using a Syntech 10x AC probe connected to a Syntech IDAC4 amplifier. The recording electrode was inserted into the ab5 sensillum, which contains two olfactory sensory neurons (OSNs), and the reference electrode was placed into the eye. Action potentials in the OSNs induced by odorant stimulation were recorded. 15 μL of odorant [3-methyl-thio-1-propanol; diluted (v/v) in paraffin oil (10^−5 to 10^−3 dilution)], was applied to a filter strip, and 10 μL of test compounds, DEET, or solvent (100% ethanol) was applied on a second filter strip. Both filter strips were placed into a Pasteur glass pipette connected to the Syntech CS55 stimulus device, and applied to the fly antenna for 1 sec. Corrected spike increases were computed by subtracting the average spontaneous activity in 1 sec before odorant stimulus from the average activity during the stimulus.
The effect of selected compounds on odor-evoked action potentials was measured from the ab5 antennal sensillum, which houses the olfactory neuron that expresses the Or47a/Or83b receptor.

[2] = ligand 2-methyl phenol 30 μM, read-out: IC50 OR2 OR7
[3] = ligand 4-methyl phenol 30 μM, read-out: IC50 OR1 OR7

Compound | pIC50 (OR2/OR7) | pIC50 (OR1/OR7) | pIC50 (OR2/OR7; [2]) | pIC50 (OR1/OR7; [3]) | suppression of 3-methyl-thio-1-propanol (3MTP)-evoked action potentials in the ab5 neuron ([1]; 3.5 mg dose on a filter paper) | suppression of 3-methyl-thio-1-propanol (3MTP)-evoked action potentials in the ab5 neuron ([1]; 10 mg dose on a filter paper)
CCNc1nc(NC(C)C)nc(SC)n1 [RU-T3] | 4.70 to 5.70 | < 3.66 | – | – | – | –
C=CCN(Cc1nccn1Cc1cccc(F)c1)C(=O)c1ccccc1F [RU-I1] | – | – | > 5.70 | > 5.70 | inhibits responses elicited by 5×10^−4 to 10^−5 dilutions of 3MTP | inhibits responses elicited by 10^−3 to 10^−5 dilutions of 3MTP
O=C(C1CCCC1)N(Cc1nccn1CCc1c(F)cccc1Cl)C1CC1 [RU-I2] | – | – | > 5.70 | > 5.70 | inhibits responses elicited by 10^−4 to 10^−5 dilutions of 3MTP | inhibits responses elicited by 10^−3 to 10^−5 dilutions of 3MTP
CCNc1nc(NCC)nc(SC)n1 [RU-T4] | – | – | 4.30 to 4.70 | 4.70 to 5.70 | – | –
Fc1cccc(Cl)c1Cn1ccnc1CN(CC1CCCC1)C1CC1 [RU-I4] | – | – | 4.70 to 5.70 | > 5.70 | – | –
CC(C)Nc1nc(Cl)nc(NC(C)C)n1 [RU-T1] | – | – | > 5.70 | > 5.70 | – | –
CN(Cc1nccn1Cc1c(F)cccc1Cl)C(=O)C1CCCC1 [RU-I5] | – | – | > 5.70 | > 5.70 | – | inhibits responses elicited by 10^−3 to 5×10^−5 dilutions of 3MTP
CC(C)Nc1nc(Cl)nc(N(C)C(C)C)n1 [RU-T7] | – | – | > 5.70 | > 5.70 | – | –
CC(C)Nc1nc(Cl)nc(NCc2ccccc2)n1 [RU-T9] | – | – | < 4.70 | > 5.70 | – | –
CCN(CC)C(=O)c1cccc(C)c1 [DEET, N,N-diethyl-m-toluamide, reference compound] | < 4.70 | < 3.13 | – | – | – | –
CSc1nc(NC(C)C)nc(NC(C)C)n1 [RU-T2] | 4.70 to 5.70 | 4.70 to 5.70 | – | – | – | –
CCNc1nc(Cl)nc(NC(C)C)n1 [RU-T5] | > 5.70 | > 5.70 | – | – | – | –
CC(C)Nc1nc(NC(C)C)nc(C(F)(F)F)n1 [RU-T8] | – | – | > 5.70 | > 5.70 | – | –
Cc1nc(NC(C)C)nc(NC(C)C)n1 [RU-T6] | – | – | < 4.70 | 4.70 to 5.70 | – | –
O=C(c1nccn1Cc1c(F)cccc1Cl)N(CC1CCCC1)C1CC1 [RU-I3] | – | – | 4.70 to 5.70 | > 5.70 | – | –
